Laboratory results published in PubChem BioAssay (NCI).
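Protocol summary: plate cells (96-well), add compound at 5 concentrations, incubate 48 h, interpolate endpoints linearly. GI50 is the concentration that inhibits growth by half. TGI: concentration producing complete growth inhibition.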

How the values were obtained:
Assay in all cases: NCI anticancer screen, dose series, 48 h
COLO 205 colon = tested on: COLO 205 colon
SNB-19 CNS = tested on: SNB-19 CNS
OVCAR-5 ovarian = tested on: OVCAR-5 ovarian
OVCAR-4 ovarian = tested on: OVCAR-4 ovarian
MDA-MB-435 = tested on: MDA-MB-435
BT-549 breast = tested on: BT-549 breast
M14 melanoma = tested on: M14 melanoma
HL-60(TB) leukemia = tested on: HL-60(TB) leukemia
SF-295 CNS = tested on: SF-295 CNS
HS 578T breast = tested on: HS 578T breast
HOP-92 NSCLC = tested on: HOP-92 NSCLC
A549 NSCLC = tested on: A549 NSCLC
OVCAR-3 ovarian = tested on: OVCAR-3 ovarian
CCRF-CEM leukemia = tested on: CCRF-CEM leukemia
786-0 renal = tested on: 786-0 renal
KM12 colon = tested on: KM12 colon
K-562 leukemia = tested on: K-562 leukemia
MOLT-4 leukemia = tested on: MOLT-4 leukemia
SK-MEL-28 melanoma = tested on: SK-MEL-28 melanoma
A498 renal = tested on: A498 renal
TK-10 renal = tested on: TK-10 renal
UACC-62 melanoma = tested on: UACC-62 melanoma
EKVX NSCLC = tested on: EKVX NSCLC
HCT-15 colon = tested on: HCT-15 colon
SN12C renal = tested on: SN12C renal
IGROV1 ovarian = tested on: IGROV1 ovarian
T-47D breast = tested on: T-47D breast
NCI-H23 lung = tested on: NCI-H23 lung
OVCAR-8 ovarian = tested on: OVCAR-8 ovarian
NCI-H522 lung = tested on: NCI-H522 lung
LOX IMVI melanoma = tested on: LOX IMVI melanoma
UACC-257 melanoma = tested on: UACC-257 melanoma
SF-268 CNS = tested on: SF-268 CNS
SF-539 CNS = tested on: SF-539 CNS
HCT-116 colon = tested on: HCT-116 colon
U251 CNS = tested on: U251 CNS
SK-MEL-5 melanoma = tested on: SK-MEL-5 melanoma
ACHN renal = tested on: ACHN renal
HCC-2998 colon = tested on: HCC-2998 colon
MDA-N = tested on: MDA-N
MDA-MB-231 breast = tested on: MDA-MB-231 breast
PC-3 prostate = tested on: PC-3 prostate
RPMI-8226 leukemia = tested on: RPMI-8226 leukemia
MCF7 breast = tested on: MCF7 breast
CAKI-1 renal = tested on: CAKI-1 renal
RXF 393 renal = tested on: RXF 393 renal
HT29 colon = tested on: HT29 colon
NCI-H460 lung = tested on: NCI-H460 lung
SK-OV-3 ovarian = tested on: SK-OV-3 ovarian
NCI/ADR-RES ovarian = tested on: NCI/ADR-RES ovarian
SK-MEL-2 melanoma = tested on: SK-MEL-2 melanoma
NCI-H226 lung = tested on: NCI-H226 lung
SW-620 colon = tested on: SW-620 colon
HOP-62 NSCLC = tested on: HOP-62 NSCLC
UO-31 renal = tested on: UO-31 renal
MALME-3M melanoma = tested on: MALME-3M melanoma
DU-145 prostate = tested on: DU-145 prostate
SR leukemia = tested on: SR leukemia
SNB-75 CNS = tested on: SNB-75 CNS

## NC(N)=NS(=O)(=O)c1ccc(Nc2c3ccccc3nc3c(C(=O)NNCCO)cccc23)cc1
COLO 205 colon
  TGI: 0.351 µM
SNB-19 CNS
  TGI: > 1 µM
OVCAR-5 ovarian
  TGI: > 1 µM
OVCAR-4 ovarian
  TGI: > 1 µM
MDA-MB-435
  TGI: 0.446 µM
BT-549 breast
  TGI: 0.303 µM
M14 melanoma
  TGI: 0.456 µM
HL-60(TB) leukemia
  TGI: 0.671 µM
SF-295 CNS
  TGI: > 1 µM
HS 578T breast
  TGI: > 1 µM
HOP-92 NSCLC
  TGI: > 1 µM
A549 NSCLC
  TGI: > 1 µM
OVCAR-3 ovarian
  TGI: 0.269 µM
CCRF-CEM leukemia
  TGI: > 1 µM
786-0 renal
  TGI: > 1 µM
KM12 colon
  TGI: 0.287 µM
K-562 leukemia
  TGI: 0.422 µM
MOLT-4 leukemia
  TGI: > 1 µM
SK-MEL-28 melanoma
  TGI: > 1 µM
A498 renal
  TGI: > 1 µM
TK-10 renal
  TGI: > 1 µM
UACC-62 melanoma
  TGI: > 1 µM
EKVX NSCLC
  TGI: > 1 µM
HCT-15 colon
  TGI: > 1 µM
SN12C renal
  TGI: > 1 µM
IGROV1 ovarian
  TGI: 0.434 µM
T-47D breast
  TGI: 0.296 µM
NCI-H23 lung
  TGI: 0.28 µM
OVCAR-8 ovarian
  TGI: > 1 µM
NCI-H522 lung
  TGI: 0.28 µM
LOX IMVI melanoma
  TGI: 0.375 µM
UACC-257 melanoma
  TGI: > 1 µM
SF-268 CNS
  TGI: 0.307 µM
SF-539 CNS
  TGI: > 1 µM
HCT-116 colon
  TGI: 0.354 µM
U251 CNS
  TGI: 0.269 µM
SK-MEL-5 melanoma
  TGI: 0.278 µM
ACHN renal
  TGI: > 1 µM
HCC-2998 colon
  TGI: 0.462 µM
MDA-N
  TGI: 0.504 µM
MDA-MB-231 breast
  TGI: 0.731 µM
PC-3 prostate
  TGI: > 1 µM
RPMI-8226 leukemia
  TGI: 0.42 µM
MCF7 breast
  TGI: 0.241 µM
CAKI-1 renal
  TGI: 0.912 µM
RXF 393 renal
  TGI: 0.756 µM
HT29 colon
  TGI: 0.933 µM
NCI-H460 lung
  TGI: 0.341 µM
SK-OV-3 ovarian
  TGI: > 1 µM
NCI/ADR-RES ovarian
  TGI: > 1 µM
SK-MEL-2 melanoma
  TGI: 0.311 µM
NCI-H226 lung
  TGI: 0.42 µM
SW-620 colon
  TGI: 0.377 µM
HOP-62 NSCLC
  TGI: 0.536 µM
UO-31 renal
  TGI: > 1 µM
MALME-3M melanoma
  TGI: 0.273 µM
DU-145 prostate
  TGI: > 1 µM

## O=C(O)CN1CCNCCNCC1
COLO 205 colon
  TGI: > 100 µM
SNB-19 CNS
  TGI: > 100 µM
OVCAR-5 ovarian
  TGI: > 100 µM
OVCAR-4 ovarian
  TGI: > 100 µM
MDA-MB-435
  TGI: > 100 µM
BT-549 breast
  TGI: > 100 µM
M14 melanoma
  TGI: > 100 µM
HL-60(TB) leukemia
  TGI: 68.5 µM
HS 578T breast
  TGI: > 100 µM
HOP-92 NSCLC
  TGI: > 100 µM
A549 NSCLC
  TGI: > 100 µM
OVCAR-3 ovarian
  TGI: > 100 µM
CCRF-CEM leukemia
  TGI: > 100 µM
786-0 renal
  TGI: > 100 µM
KM12 colon
  TGI: > 100 µM
K-562 leukemia
  TGI: > 100 µM
MOLT-4 leukemia
  TGI: > 100 µM
SK-MEL-28 melanoma
  TGI: > 100 µM
A498 renal
  TGI: > 100 µM
TK-10 renal
  TGI: > 100 µM
UACC-62 melanoma
  TGI: > 100 µM
EKVX NSCLC
  TGI: > 100 µM
HCT-15 colon
  TGI: > 100 µM
SN12C renal
  TGI: > 100 µM
IGROV1 ovarian
  TGI: > 100 µM
T-47D breast
  TGI: > 100 µM
OVCAR-8 ovarian
  TGI: > 100 µM
LOX IMVI melanoma
  TGI: > 100 µM
UACC-257 melanoma
  TGI: > 100 µM
SF-539 CNS
  TGI: > 100 µM
HCT-116 colon
  TGI: > 100 µM
U251 CNS
  TGI: > 100 µM
SK-MEL-5 melanoma
  TGI: > 100 µM
ACHN renal
  TGI: > 100 µM
MDA-N
  TGI: > 100 µM
MDA-MB-231 breast
  TGI: > 100 µM
PC-3 prostate
  TGI: > 100 µM
RPMI-8226 leukemia
  TGI: > 100 µM
MCF7 breast
  TGI: > 100 µM
CAKI-1 renal
  TGI: > 100 µM
SR leukemia
  TGI: > 100 µM
HT29 colon
  TGI: > 100 µM
NCI-H460 lung
  TGI: > 100 µM
SK-OV-3 ovarian
  TGI: > 100 µM
SNB-75 CNS
  TGI: > 100 µM
NCI/ADR-RES ovarian
  TGI: > 100 µM
SK-MEL-2 melanoma
  TGI: > 100 µM
NCI-H226 lung
  TGI: > 100 µM
SW-620 colon
  TGI: > 100 µM
HOP-62 NSCLC
  TGI: > 100 µM
UO-31 renal
  TGI: > 100 µM
DU-145 prostate
  TGI: > 100 µM

## CCC(Cc1cnc2nc(N)nc(N)c2n1)c1ccc(C(=O)NC(CCC(=O)O)C(=O)O)cc1 (stereo not drawn)
COLO 205 colon
  TGI: > 100 µM
SNB-19 CNS
  GI50: 0.0134 µM
  TGI: > 100 µM
OVCAR-5 ovarian
  TGI: > 100 µM
OVCAR-4 ovarian
  GI50: > 100 µM
  TGI: > 100 µM
MDA-MB-435
  TGI: > 100 µM
BT-549 breast
  TGI: > 100 µM
M14 melanoma
  GI50: 34.5 µM
  TGI: > 100 µM
HL-60(TB) leukemia
  TGI: > 100 µM
SF-295 CNS
  TGI: > 100 µM
HS 578T breast
  TGI: > 100 µM
A549 NSCLC
  TGI: > 100 µM
OVCAR-3 ovarian
  GI50: > 100 µM
  TGI: > 100 µM
CCRF-CEM leukemia
  TGI: > 100 µM
786-0 renal
  TGI: > 100 µM
KM12 colon
  TGI: > 100 µM
K-562 leukemia
  TGI: > 100 µM
MOLT-4 leukemia
  TGI: > 100 µM
SK-MEL-28 melanoma
  GI50: > 100 µM
  TGI: > 100 µM
A498 renal
  TGI: > 100 µM
TK-10 renal
  TGI: > 100 µM
EKVX NSCLC
  GI50: 0.0196 µM
  TGI: > 100 µM
HCT-15 colon
  TGI: > 100 µM
SN12C renal
  TGI: > 100 µM
T-47D breast
  TGI: > 100 µM
NCI-H23 lung
  TGI: > 100 µM
OVCAR-8 ovarian
  TGI: > 100 µM
NCI-H522 lung
  TGI: > 100 µM
LOX IMVI melanoma
  TGI: > 100 µM
UACC-257 melanoma
  TGI: > 100 µM
SF-268 CNS
  TGI: > 100 µM
SF-539 CNS
  TGI: 1.28 µM
HCT-116 colon
  TGI: > 100 µM
SK-MEL-5 melanoma
  TGI: > 100 µM
ACHN renal
  TGI: > 100 µM
MDA-N
  TGI: > 100 µM
MDA-MB-231 breast
  GI50: > 100 µM
  TGI: > 100 µM
PC-3 prostate
  TGI: > 100 µM
MCF7 breast
  TGI: > 100 µM
CAKI-1 renal
  TGI: > 100 µM
SR leukemia
  TGI: > 100 µM
HT29 colon
  TGI: > 100 µM
NCI-H460 lung
  TGI: > 100 µM
SNB-75 CNS
  TGI: > 100 µM
NCI/ADR-RES ovarian
  TGI: > 100 µM
SK-MEL-2 melanoma
  GI50: > 100 µM
  TGI: > 100 µM
NCI-H226 lung
  GI50: > 100 µM
  TGI: > 100 µM
SW-620 colon
  TGI: > 100 µM
HOP-62 NSCLC
  TGI: > 100 µM
UO-31 renal
  TGI: > 100 µM
DU-145 prostate
  TGI: > 100 µM
